Measured values taken from patent US8822460B2, “Fused cyclopentyl antagonists of CCR2” (Janssen Pharmaceutica, NV, priority 2012, dated 2014).
pEC50, pIC50: −log10 of the molar value. Several values for one entry are separate records, joined by “and”; a condition that tells them apart may be missing. Identical values can stand only once. Counter-ions that a name gives are not always drawn. Blank lines part the entries; values can stand above or below the compound they belong to.

What was measured:
[1] = Moisture sorption/desorption analysis; assay type: physicochemical; conditions: for total hygroscopic weight increase (uptake): up to 90% RH
Method: The crystalline phosphate, sulfate and maleate salts of the compound of formula (I-S) were additional tested in DSC, TGA and moisture sorption/desorption. […] The moisture sorption analysis was performed using Hiden Isochema system Model IGAsorp. The sample (˜5 mg) was run in a stainless-steel mesh crucible. […] The moisture profile consisted of 2 cycles of vapor adsorption/desorption.

[2] = Solution solubility; conditions: thermodynamic from solid
[3] = target: CCR2 (Homo sapiens (Human), UniProt P41597); experiment: MCP-1 Receptor Binding Assay in THP-1 Cells; conditions: stated as 'believed to have', approximate ('about')
Method: Human monocytic cell line THP-1 cells were obtained from American Type Culture Collection (Manassas, Va., USA). […] The cell density was maintained […].
1 μM cold MCP-1 was used for nonspecific binding.

[4] = test system: hCCR2KI mice; experiment: animal or person; assay type: in vivo, mouse
[5] = test system: high-fat diet induced obese mice; experiment: High-Fat Diet Induced Obesity and Insulin Resistance in Mice

Chain of CCR2 (P41597 whole entry): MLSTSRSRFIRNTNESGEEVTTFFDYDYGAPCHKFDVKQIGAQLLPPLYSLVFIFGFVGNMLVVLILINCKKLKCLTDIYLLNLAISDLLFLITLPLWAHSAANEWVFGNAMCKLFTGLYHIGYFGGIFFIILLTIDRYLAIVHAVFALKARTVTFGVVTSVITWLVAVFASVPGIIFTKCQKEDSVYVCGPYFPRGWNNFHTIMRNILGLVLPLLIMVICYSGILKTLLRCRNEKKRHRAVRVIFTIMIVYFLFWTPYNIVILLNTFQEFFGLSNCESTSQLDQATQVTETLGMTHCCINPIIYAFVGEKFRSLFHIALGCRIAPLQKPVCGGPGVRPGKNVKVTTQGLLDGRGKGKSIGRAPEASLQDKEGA

Compound: CO[C@@H]1COCC[C@@H]1N[C@@H]1C[C@H]2OCC[C@@]2(C(=O)N2CCc3ncc(C(F)(F)F)cc3C2)C1.O=C(O)CCC(=O)O [((3aS,5S,6aR)-5-(((3S,4S)-3-methoxytetrahydro-2H-pyran-4-yl)amino)hexahydro-2H-cyclopenta[b]furan-3a-yl)(3-(trifluoromethyl)-7,8-dihydro-1,6-naphthyridin-6(5H)-yl)methanone]
moisture retained at the end of the desorption phase ([1]; multiple sorption/desorption cycles, 25° C.): about 2.7% | hygroscopic weight increase ([1]; up to 70% RH): 3.8% | total hygroscopic weight increase (uptake) [1]: 70% | solubility ([2]; 0.1N NaOH, aqueous buffer): > 100 mg/mL | solubility ([2]; 0.5% methocel, aqueous with cosolvent or surfactant or cyclodextrin): > 100 mg/mL | solubility ([2]; 20% HpbCD, aqueous with cosolvent or surfactant or cyclodextrin): > 100 mg/mL | solubility ([2]; borate buffer, pH 8, aqueous buffer): > 100 mg/mL | solubility ([2]; borate buffer, pH 10, aqueous buffer): > 100 mg/mL | solubility ([2]; citrate buffer, pH 2, aqueous buffer): > 100 mg/mL | solubility ([2]; citrate buffer, pH 4, aqueous buffer): > 100 mg/mL | solubility ([2]; citrate buffer, pH 6, aqueous buffer): > 100 mg/mL | solubility ([2]; simulated gastric fluid): > 100 mg/mL | solubility ([2]; simulated intestinal fluid, fassgf or other biorelevant): > 100 mg/mL | solubility ([2]; water): > 50 mg/mL

Compound: CO[C@@H]1COCC[C@@H]1N[C@@H]1C[C@H]2OCC[C@@]2(C(=O)N2CCN(c3cccc(C(F)(F)F)n3)CC2)C1 [Example 24, ((3 aS,5S,6aR)-5-(((3S,4S)-3-methoxytetrahydro-2H-pyran-4-yl)amino)hexahydro-2H-cyclopenta[b]furan-3a-yl)(4-(6-(trifluoromethyl)pyridin-2-yl)piperazin-1-yl)methanone]
pIC50 [3]: < 6.70

Compound: CO[C@@H]1COCC[C@@H]1N[C@@H]1C[C@H]2OCC[C@@]2(C(=O)N2CCc3ncc(C(F)(F)F)cc3C2)C1.O=C(O)CCC(=O)O [Example 30, ((3aS,5S,6aR)-5-((3S,4S)-3-methoxytetrahydro-2H-pyran-4-ylamino)hexahydro-2H-cyclopenta[b]furan-3a-yl)(3-(trifluoromethyl)-7,8-dihydro-1,6-naphthyridin-6(5H)-yl)methanone succinate]
pEC50 ([4]; Mus musculus, 0.5 h, read-out: cmax EC50 in plasma): 7.01 | inhibition of thioglycollate induced cellular infiltrate ([4]; mouse, in vivo, succinate): 51% and 67% and 95% | reduction of high fat-diet induced body weight ([5]; 1 mg/kg p.o. bid, after 32-days treatment (p>0.05)): 4.94% | reduction of high fat-diet induced body weight ([5]; 3 mg/kg p.o. bid, after 32-days treatment (p<0.01)): 10.94% | reduction of high fat-diet induced body weight ([5]; 10 mg/kg p.o. bid, after 32-days treatment (p<0.01)): 15.7%

Compound: COc1cccc(C2CCN([C@@H]3C[C@H]4OCC[C@@]4(C(=O)N4CCc5ncc(C(F)(F)F)cc5C4)C3)CC2)c1 [Example 33, ((3aS,5S,6aR)-5-(4-(3-methoxyphenyl)piperidin-1-yl)hexahydro-2H-cyclopenta[b]furan-3a-yl)(3-(trifluoromethyl)-7,8-dihydro-1,6-naphthyridin-6(5H)-yl)methanone]
pIC50 [3]: > 7.30

Compound: O=C(N1COc2ccc(C(F)(F)F)cc2C1)[C@@]12CCO[C@@H]1C[C@@H](N1CCC(c3ccccc3)CC1)C2 [Example 38, ((3aS,5S,6aR)-5-(4-phenylpiperidin-1-yl)hexahydro-2H-cyclopenta[b]furan-3a-yl)(6-(trifluoromethyl)-2H-benzo[e][1,3]oxazin-3(4H)-yl)methanone]
pIC50 [3]: 6.70 to 7.00

Compound: CN(C)C(=O)c1cccc(C2CCN([C@@H]3C[C@H]4OCC[C@@]4(C(=O)N4COc5ccc(C(F)(F)F)cc5C4)C3)CC2)c1 [Example 39, N,N-dimethyl-3-(1-((3aS,5S,6aR)-3a-(6-(trifluoromethyl)-3,4-dihydro-2H-benzo[e][1,3]oxazine-3-carbonyl)hexahydro-2H-cyclopenta[b]furan-5-yl)piperidin-4-yl)benzamide]
pIC50 [3]: > 7.30

Compound: CO[C@@H]1COCC[C@@H]1N[C@@H]1C[C@H]2OCC[C@@]2(C(=O)N2CCc3ncc(C(F)(F)F)cc3C2)C1 [maleate salt, ((3aS,5S,6aR)-5-(((3S,4S)-3-methoxytetrahydro-2H-pyran-4-yl)amino)hexahydro-2H-cyclopenta[b]furan-3a-yl)(3-(trifluoromethyl)-7,8-dihydro-1,6-naphthyridin-6(5H)-yl)methanone]
hygroscopic weight increase ([1]; up to 70% RH): 18.3% | total hygroscopic weight increase (uptake) [1]: 79.9%

Compound: CO[C@@H]1COCC[C@@H]1N[C@@H]1C[C@H]2OCC[C@@]2(C(=O)N2CCc3ncc(C(F)(F)F)cc3C2)C1 [phosphate salt, ((3aS,5S,6aR)-5-(((3S,4S)-3-methoxytetrahydro-2H-pyran-4-yl)amino)hexahydro-2H-cyclopenta[b]furan-3a-yl)(3-(trifluoromethyl)-7,8-dihydro-1,6-naphthyridin-6(5H)-yl)methanone]
hygroscopic weight increase ([1]; up to 60% RH): 3.3% | total hygroscopic weight increase (uptake) [1]: 69.4%

Compound: CO[C@@H]1COCC[C@@H]1N[C@@H]1C[C@H]2OCC[C@@]2(C(=O)N2CCc3ncc(C(F)(F)F)cc3C2)C1 [sulfate salt, ((3aS,5S,6aR)-5-(((3S,4S)-3-methoxytetrahydro-2H-pyran-4-yl)amino)hexahydro-2H-cyclopenta[b]furan-3a-yl)(3-(trifluoromethyl)-7,8-dihydro-1,6-naphthyridin-6(5H)-yl)methanone]
hygroscopic weight increase ([1]; up to 60% RH): 1.6% | total hygroscopic weight increase (uptake) [1]: 26.5%

Second part, the compound after the results:

pIC50 [3]: 7.00 to 7.30
Compound: COC1COCCC1N[C@@H]1C[C@H]2OC(CC(C)C)C[C@@]2(C(=O)N2CCc3ncc(C(F)(F)F)cc3C2)C1 (stereo partly drawn) [Example 14, ((3aS,5S,6aR)-2-isobutyl-5-((3-methoxytetrahydro-2H-pyran-4-yl)amino)hexahydro-2H-cyclopenta[b]furan-3a-yl)(3-(trifluoromethyl)-7,8-dihydro-1,6-naphthyridin-6(5H)-yl)methanone]

pIC50 [3]: > 7.30
Compound: COC1COCCC1N[C@@H]1C[C@H]2OC(C3CCCCC3)C[C@@]2(C(=O)N2CCc3ncc(C(F)(F)F)cc3C2)C1 (stereo partly drawn) [Example 15, ((3aS,5S,6aR)-2-cyclohexyl-5-((3-methoxytetrahydro-2H-pyran-4-yl)amino)hexahydro-2H-cyclopenta[b]furan-3a-yl)(3-(trifluoromethyl)-7,8-dihydro-1,6-naphthyridin-6(5H)-yl)methanone]

pIC50 [3]: 6.70 to 7.00
Compound: COC1COCCC1N[C@@H]1C[C@H]2OC(c3ccnn3C)C[C@@]2(C(=O)N2CCc3ncc(C(F)(F)F)cc3C2)C1 (stereo partly drawn) [Example 17, ((3aS,5S,6aR)-5-((3-methoxytetrahydro-2H-pyran-4-yl)amino)-2-(1-methyl-1H-pyrazol-5-yl)hexahydro-2H-cyclopenta[b]furan-3a-yl)(3-(trifluoromethyl)-7,8-dihydro-1,6-naphthyridin-6(5H)-yl)methanone]

pIC50 [3]: < 6.70
Compound: COC1COCCC1N[C@@H]1C[C@H]2OC(c3nccn3C)C[C@@]2(C(=O)N2CCc3ncc(C(F)(F)F)cc3C2)C1 (stereo partly drawn) [Example 18, ((3 aS,5S,6aR)-5-((3-methoxytetrahydro-2H-pyran-4-yl)amino)-2-(1-methyl-1H-imidazol-2-yl)hexahydro-2H-cyclopenta[b]furan-3a-yl)(3-(trifluoromethyl)-7,8-dihydro-1,6-naphthyridin-6(5H)-yl)methanone]

pIC50 [3]: < 6.70
Compound: CO[C@@H]1COCC[C@@H]1N[C@@H]1C[C@H]2OCC[C@@]2(C(=O)N2CCN(c3ccnc(C(F)(F)F)n3)CC2)C1 [Example 28, ((3aS,5S,6aR)-5-(((3S,4S)-3-methoxytetrahydro-2H-pyran-4-yl)amino)hexahydro-2H-cyclopenta[b]furan-3a-yl)(4-(2-(trifluoromethyl)pyrimidin-4-yl)piperazin-1-yl)methanone]

pIC50 [3]: < 6.70
Compound: COCCN([C@@H]1C[C@H]2OCC[C@@]2(C(=O)N2CCc3ncc(C(F)(F)F)cc3C2)C1)[C@H]1CCOC[C@H]1OC [Example 41, ((3aS,5S,6aR)-5-((2-methoxyethyl)((3S,4S)-3-methoxytetrahydro-2H-pyran-4-yl)amino)hexahydro-2H-cyclopenta[b]furan-3a-yl)(3-(trifluoromethyl)-7,8-dihydro-1,6-naphthyridin-6(5H)-yl)methanone]

pIC50 [3]: < 6.70
Compound: COCCOCCOCCOCCCN([C@@H]1C[C@H]2OCC[C@@]2(C(=O)N2CCc3ncc(C(F)(F)F)cc3C2)C1)[C@H]1CCOC[C@H]1OC [Example 42, ((3aS,5S,6aR)-5-(((3S,4S)-3-methoxytetrahydro-2H-pyran-4-yl)(2,5,8,11-tetraoxatetradecan-14-yl)amino)hexahydro-2H-cyclopenta[b]furan-3a-yl)(3-(trifluoromethyl)-7,8-dihydro-1,6-naphthyridin-6(5H)-yl)methanone]
